Data: patent publication US7183295B2, “PPAR-activating compound and pharmaceutical composition comprising the compound” (Kowa Co., Ltd., priority 2003, dated 2007)

Key:
Format in all cases: cell-based
[1] = biological target: T1, human PPARα (166–467aa) ligand binding domain (Homo sapiens, UniProt Q07869); assay: PPAR transfection (Gal4-LBD luciferase reporter) assay, hPPARα; conditions: for EC50: 16 hours, luciferase activity, read-out: hPPAR, EC50 α (agonist activity)
T1 construct: human PPARα (166–467aa); expressed in transfected cells; host or cells: COS-7
T1 sequence (Q07869 166-467): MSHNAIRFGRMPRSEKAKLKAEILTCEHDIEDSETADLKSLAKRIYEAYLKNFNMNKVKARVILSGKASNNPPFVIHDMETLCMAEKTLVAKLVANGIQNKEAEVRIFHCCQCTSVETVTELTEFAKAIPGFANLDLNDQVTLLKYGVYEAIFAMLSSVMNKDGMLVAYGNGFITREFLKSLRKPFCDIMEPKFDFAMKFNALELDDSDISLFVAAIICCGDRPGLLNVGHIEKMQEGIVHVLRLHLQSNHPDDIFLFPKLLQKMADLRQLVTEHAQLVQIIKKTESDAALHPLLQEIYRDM
Experimental: (§1) COS-7 cells, which is African green monkey kidney cell line, were used for all transfection assays. Cells were cultured in DMEM medium supplemented with 10% fetal bovine serum, glutamic acid, and an antibiotic under humidified 5% CO2 atmosphere.
(§2) Cells were transfected by lipofectamine reagent with a mixture containing expression plasmid, firefly luciferase reporter plasmid. And a β-galactosidase expression plasmid used as an internal control for transfection efficiency.
(§3) Transiently transfected cells were incubated with DMEM with 0.2% FCS with or without compound. And after 16 hours, luciferase activity and β-galactosidase activity of cell lysate were measured.
(§4) Each compound was dissolved in and diluted with dimethyl sulfoxide (DMSO), and the DMSO concentration of the DMEM medium (containing 0.2% serum) was adjusted to 0.1% upon treatment of cells.

[2] = biological target: T2, human PPARγ (182–505aa) ligand binding domain (Homo sapiens, UniProt P37231); assay: PPAR transfection (Gal4-LBD luciferase reporter) assay, hPPARγ; conditions: for activation factor, hPPARγ (FIGS. 1 to 5): at 10-fold concentration of EC50 value in activation of hPPARα, ratio to DMSO control; for EC50: 16 hours, luciferase activity, read-out: hPPAR, EC50 γ (agonist activity)
T2 construct: γ(182–505aa); expressed in transfected cells; host or cells: COS-7
T2 sequence (P37231 182-505): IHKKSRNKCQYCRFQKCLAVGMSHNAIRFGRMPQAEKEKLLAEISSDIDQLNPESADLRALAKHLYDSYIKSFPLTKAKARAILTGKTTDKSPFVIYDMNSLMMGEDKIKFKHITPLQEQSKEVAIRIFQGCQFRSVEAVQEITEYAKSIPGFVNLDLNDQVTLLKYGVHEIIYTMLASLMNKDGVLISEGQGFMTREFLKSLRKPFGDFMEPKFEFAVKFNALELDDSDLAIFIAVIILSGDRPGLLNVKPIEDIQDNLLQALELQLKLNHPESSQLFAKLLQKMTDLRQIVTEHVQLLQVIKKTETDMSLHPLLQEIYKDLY
Experimental: as §1, §2, §3, §4

[3] = biological target: T3, human PPARδ (137–441aa) ligand binding domain (Homo sapiens, UniProt Q03181); assay: PPAR transfection (Gal4-LBD luciferase reporter) assay, hPPARδ; conditions: for activation factor, hPPARδ (FIGS. 1 to 5): at 10-fold concentration of EC50 value in activation of hPPARα, ratio to DMSO control; for EC50: 16 hours, luciferase activity, read-out: hPPAR, EC50 δ (agonist activity)
T3 construct: δ (137–441aa); expressed in transfected cells; host or cells: COS-7
T3 sequence (Q03181 137-441): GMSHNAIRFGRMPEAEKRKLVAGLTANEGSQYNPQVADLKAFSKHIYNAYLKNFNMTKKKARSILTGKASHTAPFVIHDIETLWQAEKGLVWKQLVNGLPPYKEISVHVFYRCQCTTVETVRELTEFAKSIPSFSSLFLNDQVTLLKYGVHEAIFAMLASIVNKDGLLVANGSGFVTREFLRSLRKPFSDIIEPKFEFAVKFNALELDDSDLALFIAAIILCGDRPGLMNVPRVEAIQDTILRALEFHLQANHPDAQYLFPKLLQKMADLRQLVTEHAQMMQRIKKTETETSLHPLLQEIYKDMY
Experimental: as §1, §2, §3, §4

activation factor, hPPARα (FIGS. 1 to 5) ([1]; at EC50 value in activation of hPPARα and at 10 times that concentration, ratio to DMSO control) | activation of hPPARα isoform ([1]; transfected COS-7 cells) | activation factor, hPPARγ (FIGS. 1 to 5) [2] | activation of hPPARγ isoform ([2]; transfected COS-7 cells) | activation factor, hPPARδ (FIGS. 1 to 5) [3] | activation of hPPARδ isoform ([3]; transfected COS-7 cells) | EC50 ([1]; transfected COS-7 cells) [nM] | EC50 ([2]; transfected COS-7 cells) [nM] | EC50 ([3]; transfected COS-7 cells) [nM] | Compound
activated no hPPAR isoform | no activation | activated no hPPAR isoform | no activation | activated no hPPAR isoform | no activation | – | – | – | CC(C)(Oc1ccc(CCCN(CCc2ccccc2)c2nc3ccccc3[nH]2)cc1)C(=O)O [Compound C, reference compound]
– | – | – | – | – | – | 80 | 9100 | 1600 | CCC(Oc1cccc(CCN(CCCOc2ccccc2)c2nc3cc(F)ccc3o2)c1)C(=O)O (stereo not shown) [Example 39, 2-[3-[2-[N-(5-Fluorobenzoxazol-2-yl)-N-3-phenoxypropyl]aminoethyl]phenoxy]butyric acid]
– | – | – | – | – | – | 6 | > 10000 | 1800 | CCC(Oc1cccc(CN(CCOc2ccccc2)c2nc3cc(F)ccc3o2)c1)C(=O)O (stereo not shown) [Example 229]
– | – | – | – | – | – | 3 | 940 | 1200 | CC[C@@H](Oc1cccc(CN(CCCOc2ccc(F)cc2)c2nc3ccccc3o2)c1)C(=O)O [Example 87, (R)-2-[[3-[N-(Benzoxazol-2-yl)-N-3-(4-fluorophenoxy)propyl]aminomethyl]phenoxy]butyric acid]
– | – | – | – | – | – | 10 | 1600 | 1800 | COc1ccc(OCCCN(Cc2cccc(OC(C)C(=O)O)c2)c2nc3cc(Cl)ccc3o2)cc1 (stereo not shown) [Example 204]
– | – | strongly activate | – | strongly activate | – | 100 | 200 | 400 | CC(C)(Oc1ccc(CCCN(CCc2ccccc2)c2nc3ccccc3s2)cc1)C(=O)O [Compound A]
– | – | – | – | – | – | 0.1 | 1200 | > 100000 | CC(Oc1cccc(CN(CCCOc2cccc(N(C)C)c2)c2nc3ccccc3o2)c1)C(=O)O (stereo not shown) [Example 19, 2-[3-[[N-(Benzoxazol-2-yl)-N-3-(3-dimethylaminophenoxy)propyl]aminomethyl]phenoxy]propionic acid]
– | – | – | – | – | – | 11 | 2900 | 3700 | C[C@@H](Oc1cccc(CN(CCCOc2ccccc2)c2nc3ccccc3o2)c1)C(=O)O [Example 88, (R)-2-[[3-[N-(Benzoxazol-2-yl)-N-3-phenoxypropyl]aminomethyl]phenoxy]propionic acid]
– | – | – | – | – | – | 10 | > 100000 | 1800 | CCC(Oc1cccc(CCN(CCOc2ccc(OC)cc2)c2nc3cc(F)ccc3o2)c1)C(=O)O (stereo not shown) [Example 46, 2-[3-[2-[N-(5-Fluorobenzoxazol-2-yl)-N-2-(4-methoxyphenoxy)ethyl]aminoethyl]phenoxy]butyric acid]
– | – | – | – | – | – | 30 | 1400 | 2300 | CCC(Oc1cccc(CN(CCOc2ccccc2)c2nc3ccccc3o2)c1)C(=O)O (stereo not shown) [Example 24, 2-[3-[[N-(Benzoxazol-2-yl)-N-2-phenoxyethyl]aminomethyl]phenoxy]butyric acid]
– | – | – | – | – | – | 4 | 1200 | 1300 | CC(Oc1cccc(CN(CCCOc2ccc3c(c2)OCO3)c2nc3ccccc3o2)c1)C(=O)O (stereo not shown) [Example 157]
– | – | – | – | – | – | 90 | > 100000 | > 50000 | CC(Oc1cccc(CCN(CCOc2ccccc2)c2nc3ccccc3o2)c1)C(=O)O (stereo not shown) [Example 31, 2-[3-[2-[N-(Benzoxazol-2-yl)-N-2-phenoxyethyl]aminoethyl]phenoxy]propionic acid]
– | – | – | – | – | – | 20 | 5500 | 10000 | CC(Oc1cccc(CN(CCOc2ccc(F)cc2)c2nc3ccccc3o2)c1)C(=O)O (stereo not shown) [Example 186]
– | – | – | – | – | – | 40 | > 50000 | 1500 | CCC(Oc1cccc(CCN(CCOc2ccc(OC)cc2)c2nc3cc(Cl)ccc3o2)c1)C(=O)O (stereo not shown) [Example 47, 2-[3-[2-[N-(5-Chlorobenzoxazol-2-yl)-N-2-(4-methoxyphenoxy)ethyl]aminoethyl]phenoxy]butyric acid]
– | – | – | – | – | – | 10 | 1400 | 1700 | COc1ccc2oc(N(CCCOc3ccc(Cl)cc3)Cc3cccc(OC(C)C(=O)O)c3)nc2c1 (stereo not shown) [Example 206]
– | – | – | – | – | – | 7 | 1300 | 1800 | CCC(Oc1cccc(CN(CCCOc2ccc(F)cc2)c2nc3ccc(F)cc3o2)c1)C(=O)O (stereo not shown) [Example 140]
– | – | – | – | – | – | 1 | 200 | 100 | CCC(Oc1cccc(CN(CCCOc2ccc(C)cc2)c2nc3ccccc3o2)c1)C(=O)O (stereo not shown) [Example 146]
– | – | – | – | – | – | 5 | 1600 | 1100 | CCC(Oc1cccc(CN(CCCOc2ccccc2)c2nc3cc4c(cc3o2)OCO4)c1)C(=O)O (stereo not shown) [Example 158]
– | – | – | – | – | – | 10 | 1200 | 2400 | CC(Oc1cccc(CN(CCCOc2ccccc2)c2nc3ccccc3o2)c1)C(=O)O (stereo not shown) [Example 9, 2-[3-[[N-(Benzoxazol-2-yl)-N-3-phenoxypropyl]aminomethyl]phenoxy]propionic acid]
– | – | – | – | – | – | 70 | 3500 | > 100000 | CC(C)(Oc1cccc(CN(CCOc2ccc(Cl)cc2)c2nc3ccccc3o2)c1)C(=O)O [Example 6, 2-[3-[[N-(Benzoxazol-2-yl)-N-2-(4-chlorophenoxy)ethyl]aminomethyl]phenoxy]-2-methylpropionic acid]
– | – | – | – | – | – | 4 | > 10000 | 2000 | CC(Oc1cccc(CN(CCCOc2ccc(F)cc2)c2nc3cc4c(cc3o2)OCO4)c1)C(=O)O (stereo not shown) [Example 169]
– | – | – | – | – | – | 60 | 3900 | 1900 | CCC(Oc1cccc(CCN(CCCOc2ccc(Cl)cc2)c2nc3ccccc3o2)c1)C(=O)O (stereo not shown) [Example 53, 2-[3-[2-[N-(Benzoxazol-2-yl)-N-3-(4-chlorophenoxy)propyl]aminoethyl]phenoxy]butyric acid]
– | – | – | – | – | – | 40 | 2600 | 1400 | CCC(Oc1cccc(CCN(CCCOc2ccc(F)cc2)c2nc3ccccc3o2)c1)C(=O)O (stereo not shown) [Example 50, 2-[3-[2-[N-(Benzoxazol-2-yl)-N-3-(4-fluorophenoxy)propyl]aminoethyl]phenoxy]butyric acid]
– | – | strongly activate | – | strongly activate | – | 120 | 700 | 900 | CC(C)(Oc1ccc(CCCN(CCc2ccccc2)C(=O)c2nc3ccccc3s2)cc1)C(=O)O [Compound B, reference compound]
